Results on 18 molecules are retold here after ChEMBL document CHEMBL1629482, “Synthesis and antitubercular activity of new mefloquine-oxazolidine derivatives” (Eur J Med Chem, 2010).

Data set [1] relates to Mycobacterium tuberculosis. In words: Antitubercular activity against Mycobacterium tuberculosis ATCC 27294 by Alamar blue assay. It counts as functional. Background: Resazurin is reduced to fluorescent resorufin, in cell work by metabolically active cells.
Data set [2] is described as follows: Cytotoxicity against mouse macrophage assessed as cell viability at 50 uM after 18 hrs by MTT assay. In kind it is cell-based. The following applies: mouse macrophages, read-out: Activity. For orientation: Formazan colour is commonly taken as a measure of viable cells.
Data set [3] in a line: Cytotoxicity against mouse macrophage assessed as cell viability at 25 uM after 18 hrs by MTT assay. As to conditions: mouse macrophages, read-out: Activity. It counts as cell-based.
Data set [4] can be described thus: Cytotoxicity against mouse macrophage assessed as cell viability at 12.5 uM after 18 hrs by MTT assay. In kind it is cell-based. The following applies: mouse macrophages, read-out: Activity.
Data set [5] has as its system Mycobacterium tuberculosis. In words: Antitubercular activity against Mycobacterium tuberculosis. In kind it is functional.
In the next data set the test system is Mycobacterium avium. In words: Antitubercular activity against Mycobacterium avium by Broth micro dilution method. In kind it is functional.

What is called MIC is the lowest concentration found to suppress growth. Low values mean a more susceptible organism, high ones a less susceptible organism.

Each structure is given as a SMILES string. ≈ marks a conversion by molar mass, not a printed value.

As for `O=[N+]([O-])c1cccc(C2O[C@@H](c3cc(C(F)(F)F)nc4c(C(F)(F)F)cccc34)[C@H]3CCCCN23)c1` (stereo partly specified), the MIC in data set [1] was more than 250 µM. Besides, in data set [2], the viability at 18 h, 50 µM stood at 100%. In addition, the viability at 18 h, 25 µM in data set [3] is 100%. In addition, the viability at 18 h, 12.5 µM in data set [4] was 100%.

Consider `FC(F)(F)c1cc([C@H]2O[C@@H](c3ccccc3)N3CCCC[C@@H]23)c2cccc(C(F)(F)F)c2n1`, for which the MIC in data set [1] is 26.8 µM (≈ 12.5 µg/mL). In data set [2], the viability at 18 h, 50 µM is 95%. Also, the viability at 18 h, 25 µM in data set [3] was found to be 96%. Moreover, the viability at 18 h, 12.5 µM in data set [4] was determined as 100%.

The molecule `O=[N+]([O-])c1ccccc1C1O[C@@H](c2cc(C(F)(F)F)nc3c(C(F)(F)F)cccc23)[C@H]2CCCCN12` (mixture of isomers) yielded an MIC in data set [1] of more than 250 µM. Besides, the viability at 18 h, 50 µM in data set [2] was found to be 100%. In addition, the viability at 18 h, 25 µM in data set [3] is 100%. The viability at 18 h, 12.5 µM in data set [4] came out at 100%.

For the molecule `COc1cccc(C2O[C@@H](c3cc(C(F)(F)F)nc4c(C(F)(F)F)cccc34)[C@H]3CCCCN23)c1` (mixture of isomers), the MIC in data set [1] was found to be 25.2 µM. Besides, the viability at 18 h, 50 µM in data set [2] stood at 80%. The viability at 18 h, 25 µM in data set [3] was 80%. Also, the viability at 18 h, 12.5 µM in data set [4] came out at 100%.

The molecule `COc1ccc(C2O[C@@H](c3cc(C(F)(F)F)nc4c(C(F)(F)F)cccc34)[C@H]3CCCCN23)cc1` (mixture of isomers) gave an MIC in data set [1] of 25.2 µM. In addition, the viability at 18 h, 50 µM in data set [2] was 100%. For the same molecule, the viability at 18 h, 25 µM in data set [3] worked out at 100%. Also, the viability at 18 h, 12.5 µM in data set [4] came to 100%.

`O=[N+]([O-])c1ccc(C2O[C@@H](c3cc(C(F)(F)F)nc4c(C(F)(F)F)cccc34)[C@H]3CCCCN23)cc1` (mixture of isomers) returned an MIC in data set [1] of more than 250 µM. Also, the viability at 18 h, 50 µM in data set [2] was 100%. The viability at 18 h, 25 µM in data set [3] was found to be 100%. In addition, in data set [4], the viability at 18 h, 12.5 µM is 100%.

Molecule `FC(F)(F)c1cc([C@@H]2OC(c3ccccc3Cl)N3CCCC[C@H]23)c2cccc(C(F)(F)F)c2n1` (mixture of isomers) returned an MIC in data set [1] of more than 250 µM. In addition, in data set [2], the viability at 18 h, 50 µM was found to be 100%. For the same molecule, in data set [3], the viability at 18 h, 25 µM turned out to be 100%. Further, the viability at 18 h, 12.5 µM in data set [4] came to 100%.

Turning to `FC(F)(F)c1cc([C@@H]2OC(c3cccc(Cl)c3)N3CCCC[C@H]23)c2cccc(C(F)(F)F)c2n1` (mixture of isomers), the MIC in data set [1] was more than 250 µM. Moreover, in data set [2], the viability at 18 h, 50 µM is 90%. Also, in data set [3], the viability at 18 h, 25 µM is 100%. Besides, in data set [4], the viability at 18 h, 12.5 µM stood at 100%.

Regarding `FC(F)(F)c1cc([C@@H]2OC(c3ccc(Cl)cc3)N3CCCC[C@H]23)c2cccc(C(F)(F)F)c2n1` (mixture of isomers), in data set [1], the MIC was more than 250 µM. In addition, the viability at 18 h, 50 µM in data set [2] came out at 100%. Besides, in data set [3], the viability at 18 h, 25 µM came to 100%. Further, in data set [4], the viability at 18 h, 12.5 µM came out at 100%.

On to `FC(F)(F)c1cc([C@@H]2OC(c3cccc(Br)c3)N3CCCC[C@H]23)c2cccc(C(F)(F)F)c2n1` (mixture of isomers), for which, in data set [1], the MIC was more than 250 µM. Moreover, the viability at 18 h, 50 µM in data set [2] amounted to 85%. In addition, the viability at 18 h, 25 µM in data set [3] amounted to 85%. Besides, the viability at 18 h, 12.5 µM in data set [4] was 100%.

Molecule `FC(F)(F)c1cc([C@@H]2OC(c3ccc(Br)cc3)N3CCCC[C@H]23)c2cccc(C(F)(F)F)c2n1` (mixture of isomers) had an MIC in data set [1] of more than 250 µM. In addition, the viability at 18 h, 50 µM in data set [2] was 100%. Moreover, the viability at 18 h, 25 µM in data set [3] amounted to 100%. In data set [4], the viability at 18 h, 12.5 µM was 100%.

Take `Fc1ccccc1C1O[C@@H](c2cc(C(F)(F)F)nc3c(C(F)(F)F)cccc23)[C@H]2CCCCN12` (mixture of isomers): the MIC in data set [1] was more than 250 µM. The viability at 18 h, 50 µM in data set [2] is 100%. Also, the viability at 18 h, 25 µM in data set [3] is 100%. Also, the viability at 18 h, 12.5 µM in data set [4] turned out to be 100%.

`Fc1ccc(C2O[C@@H](c3cc(C(F)(F)F)nc4c(C(F)(F)F)cccc34)[C@H]3CCCCN23)cc1` (mixture of isomers) registered an MIC in data set [1] of 25.8 µM. The viability at 18 h, 50 µM in data set [2] was 82%. Moreover, in data set [3], the viability at 18 h, 25 µM turned out to be 84%. The viability at 18 h, 12.5 µM in data set [4] was 93%.

Take `Oc1ccccc1C1O[C@@H](c2cc(C(F)(F)F)nc3c(C(F)(F)F)cccc23)[C@H]2CCCCN12` (mixture of isomers): 25.9 µM was the least that counted as inhibitory in data set [1] (MIC). In addition, in data set [2], the viability at 18 h, 50 µM was found to be 85%. Further, the viability at 18 h, 25 µM in data set [3] stood at 85%. The viability at 18 h, 12.5 µM in data set [4] was determined as 100%.

In turn, `Oc1ccc(C2O[C@@H](c3cc(C(F)(F)F)nc4c(C(F)(F)F)cccc34)[C@H]3CCCCN23)cc1` (mixture of isomers) came in with an MIC in data set [1] of 25.9 µM. For the same molecule, in data set [2], the viability at 18 h, 50 µM turned out to be 80%. Also, in data set [3], the viability at 18 h, 25 µM stood at 80%. Moreover, the viability at 18 h, 12.5 µM in data set [4] is 100%.

`COc1ccccc1C1O[C@@H](c2cc(C(F)(F)F)nc3c(C(F)(F)F)cccc23)[C@H]2CCCCN12` (mixture of isomers): the minimal inhibitory concentration (MIC) in data set [1] was 12.6 µM. Also, the viability at 18 h, 50 µM in data set [2] was found to be 100%. For the same molecule, the viability at 18 h, 25 µM in data set [3] amounted to 100%. Also, the viability at 18 h, 12.5 µM in data set [4] is 100%.

Take `CC[C@@H](CO)NCCN[C@@H](CC)CO` [ETHAMBUTOL]: the MIC in data set [1] amounted to 15.9 µM (≈ 3.25 µg/mL).

Take `OC(c1cc(C(F)(F)F)nc2c(C(F)(F)F)cccc12)C1CCCCN1` (stereo unspecified) [MEFLOQUINE]: the figures for the minimal inhibitory concentration (MIC) (in data set [1]; in data set [5]; in the data set with Mycobacterium avium) were 33 µM (≈ 12.5 µg/mL), 21.1 µM (≈ 7.98 µg/mL) and 21.1 µM (≈ 7.98 µg/mL), respectively. The viability at 18 h, 50 µM in data set [2] stood at 76%. In addition, the viability at 18 h, 25 µM in data set [3] came out at 77%. The viability at 18 h, 12.5 µM in data set [4] turned out to be 81%.
